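1) Cells in 96-well plates. 2) Compound, 48 h, 5 concentrations. 3) Linear interpolation between surrounding doses. 4) Unreached endpoint = highest concentration. At the GI50, growth is halved.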 Active and inactive are the calls of the source. No stated cut-off is given here; in the data, active = GI50 up to about 1.1 µM and inactive = higher.
Columns and labels:
Experiment in all cases: NCI anticancer screen, dose series, 48 h
Hs-578T = system: Hs-578T
PC-3 = system: PC-3
NCI-H522 = system: NCI-H522
NCI/ADR-RES = system: NCI/ADR-RES
SK-MEL-28 = system: SK-MEL-28
OVCAR-4 = system: OVCAR-4
SF-295 = system: SF-295
CAKI-1 = system: CAKI-1
HT-29 = system: HT-29
T47D = system: T47D
MDA-MB-231 = system: MDA-MB-231
OVCAR-5 = system: OVCAR-5
KM12 = system: KM12
HOP-92 = system: HOP-92
HCC 2998 = system: HCC 2998
RXF 393 = system: RXF 393
IGROV-1 = system: IGROV-1
SK-OV-3 = system: SK-OV-3
HOP-62 = system: HOP-62
OVCAR-3 = system: OVCAR-3
TK-10 = system: TK-10
UACC-62 = system: UACC-62
LOX IMVI = system: LOX IMVI
MCF7 = system: MCF7
SF-268 = system: SF-268
SK-MEL-2 = system: SK-MEL-2
SW-620 = system: SW-620
NCI-H226 = system: NCI-H226
UO-31 = system: UO-31
CCRF-CEM = system: CCRF-CEM
SK-MEL-5 = system: SK-MEL-5
A498 = system: A498
A549 = system: A549
EKVX = system: EKVX
MDA-MB-435 = system: MDA-MB-435
COLO 205 = system: COLO 205
RPMI-8226 = system: RPMI-8226
ACHN = system: ACHN
HCT-116 = system: HCT-116
U-251 = system: U-251
786-0 = system: 786-0
BT-549 = system: BT-549
Malme-3M = system: Malme-3M
NCI-H460 = system: NCI-H460
OVCAR-8 = system: OVCAR-8
HL-60 = system: HL-60
K562 = system: K562
SNB-75 = system: SNB-75
HCT-15 = system: HCT-15
UACC-257 = system: UACC-257
NCI-H23 = system: NCI-H23
SNB-19 = system: SNB-19
M14 = system: M14
MDA-N = system: MDA-N
SR = system: SR
DU-145 = system: DU-145
SN12C = system: SN12C
SF-539 = system: SF-539
MOLT-4 = system: MOLT-4

`O=C(O)C(F)(F)C(F)(F)C(F)(F)C(F)(F)C(=O)O` was tested, and the GI50 (Hs-578T) was > 100 µM (inactive), the GI50 (PC-3) was > 100 µM (inactive) and the GI50 (NCI-H522) was > 100 µM (inactive). The GI50 (NCI/ADR-RES) was > 100 µM (inactive), the GI50 (SK-MEL-28) was > 100 µM (inactive) and the GI50 (OVCAR-4) was > 100 µM (inactive). For the same molecule, the GI50 (SF-295) was > 100 µM (inactive), the GI50 (CAKI-1) was > 100 µM (inactive) and the GI50 (HT-29) was > 100 µM (inactive). For the same molecule, the GI50 (T47D) was > 100 µM (inactive), the GI50 (MDA-MB-231) was > 100 µM (inactive) and the GI50 (OVCAR-5) was > 100 µM (inactive). The GI50 (KM12) was > 100 µM (inactive), the GI50 (HOP-92) was > 100 µM (inactive) and the GI50 (HCC 2998) was > 100 µM (inactive). For the same molecule, the GI50 (RXF 393) was > 100 µM (inactive), the GI50 (IGROV-1) was > 100 µM (inactive) and the GI50 (SK-OV-3) was > 100 µM (inactive). The GI50 (HOP-62) was > 100 µM (inactive), the GI50 (OVCAR-3) was > 100 µM (inactive) and the GI50 (TK-10) was > 100 µM (inactive). The GI50 (UACC-62) was > 100 µM (inactive), the GI50 (LOX IMVI) was > 100 µM (inactive) and the GI50 (MCF7) was > 100 µM (inactive). The GI50 (SF-268) was > 100 µM (inactive), the GI50 (SK-MEL-2) was > 100 µM (inactive) and the GI50 (SW-620) was > 100 µM (inactive). The GI50 (NCI-H226) was > 100 µM (inactive), the GI50 (UO-31) was > 100 µM (inactive) and the GI50 (CCRF-CEM) was > 100 µM (inactive). The GI50 (SK-MEL-5) was > 100 µM (inactive), the GI50 (A498) was > 100 µM (inactive) and the GI50 (A549) was > 100 µM (inactive). For the same molecule, the GI50 (EKVX) was > 100 µM (inactive), the GI50 (MDA-MB-435) was > 100 µM (inactive) and the GI50 (COLO 205) was > 100 µM (inactive). For the same molecule, the GI50 (RPMI-8226) was > 100 µM (inactive), the GI50 (ACHN) was > 100 µM (inactive) and the GI50 (HCT-116) was > 100 µM (inactive). The GI50 (U-251) was > 100 µM (inactive), the GI50 (786-0) was > 100 µM (inactive) and the GI50 (BT-549) was > 100 µM (inactive). The GI50 (Malme-3M) was > 100 µM (inactive), the GI50 (NCI-H460) was > 100 µM (inactive) and the GI50 (OVCAR-8) was > 100 µM (inactive). The GI50 (HL-60) was > 100 µM (inactive), the GI50 (K562) was > 100 µM (inactive) and the GI50 (SNB-75) was > 100 µM (inactive). For the same molecule, the GI50 (HCT-15) was greater than 100 µM, the GI50 (UACC-257) was > 100 µM (inactive) and the GI50 (NCI-H23) was > 100 µM (inactive). The GI50 (SNB-19) was > 100 µM (inactive), the GI50 (M14) was > 100 µM (inactive) and the GI50 (MDA-N) was > 100 µM (inactive). The GI50 (SR) was > 100 µM (inactive), the GI50 (DU-145) was > 100 µM (inactive) and the GI50 (SN12C) was > 100 µM (inactive).
`c1cc(C[S+]2CCCC2)sc1C[S+]1CCCC1` was tested, and the GI50 (Hs-578T) was > 100 µM (inactive), the GI50 (PC-3) was > 100 µM (inactive) and the GI50 (NCI-H522) was > 100 µM (inactive). The GI50 (NCI/ADR-RES) was > 100 µM (inactive), the GI50 (SK-MEL-28) was > 10 µM (inactive) and the GI50 (OVCAR-4) was > 100 µM (inactive). For the same molecule, the GI50 (SF-295) was > 100 µM (inactive), the GI50 (CAKI-1) was > 100 µM (inactive) and the GI50 (HT-29) was > 100 µM (inactive). For the same molecule, the GI50 (T47D) was > 100 µM (inactive), the GI50 (MDA-MB-231) was > 100 µM (inactive) and the GI50 (OVCAR-5) was > 100 µM (inactive). The GI50 (KM12) was > 100 µM (inactive), the GI50 (HOP-92) was > 100 µM (inactive) and the GI50 (HCC 2998) was > 100 µM (inactive). For the same molecule, the GI50 (RXF 393) was > 100 µM (inactive), the GI50 (IGROV-1) was > 100 µM (inactive) and the GI50 (SK-OV-3) was > 100 µM (inactive). For the same molecule, the GI50 (HOP-62) was > 100 µM (inactive), the GI50 (OVCAR-3) was > 100 µM (inactive) and the GI50 (TK-10) was > 100 µM (inactive). The GI50 (UACC-62) was > 100 µM (inactive), the GI50 (LOX IMVI) was > 100 µM (inactive) and the GI50 (SF-539) was > 100 µM (inactive). The GI50 (MCF7) was > 100 µM (inactive), the GI50 (SF-268) was > 100 µM (inactive) and the GI50 (SW-620) was > 100 µM (inactive). The GI50 (NCI-H226) was > 100 µM (inactive), the GI50 (UO-31) was > 100 µM (inactive) and the GI50 (CCRF-CEM) was > 100 µM (inactive). The GI50 (SK-MEL-5) was > 100 µM (inactive), the GI50 (A498) was 39.2 µM (inactive) and the GI50 (A549) was > 100 µM (inactive). The GI50 (EKVX) was > 100 µM (inactive), the GI50 (MDA-MB-435) was > 100 µM (inactive) and the GI50 (COLO 205) was > 100 µM (inactive). For the same molecule, the GI50 (RPMI-8226) was > 100 µM (inactive), the GI50 (ACHN) was > 100 µM (inactive) and the GI50 (HCT-116) was > 100 µM (inactive). The GI50 (U-251) was > 100 µM (inactive), the GI50 (MOLT-4) was > 100 µM (inactive) and the GI50 (786-0) was > 100 µM (inactive). The GI50 (BT-549) was > 100 µM (inactive), the GI50 (Malme-3M) was > 100 µM (inactive) and the GI50 (NCI-H460) was > 100 µM (inactive). The GI50 (OVCAR-8) was > 100 µM (inactive), the GI50 (HL-60) was > 100 µM (inactive) and the GI50 (K562) was > 100 µM (inactive). For the same molecule, the GI50 (SNB-75) was > 100 µM (inactive), the GI50 (HCT-15) was greater than 100 µM and the GI50 (UACC-257) was > 100 µM (inactive). The GI50 (NCI-H23) was > 100 µM (inactive), the GI50 (SNB-19) was > 100 µM (inactive) and the GI50 (M14) was > 100 µM (inactive). The GI50 (MDA-N) was > 100 µM (inactive), the GI50 (SR) was > 100 µM (inactive) and the GI50 (DU-145) was > 100 µM (inactive). For the same molecule, the GI50 (SN12C) was > 100 µM (inactive).

Reference: ChEMBL document CHEMBL1201862, “PubChem BioAssay data set” (2004)
